Test results from the supplement of paper PMC10307832.

Assays:
Experiment in all cases: relative viability (nuclei count vs DMSO), 5 days (fraction); higher = more cells survive
R406 + Alpelisib = compound: COc1cc(Nc2ncc(F)c(Nc3ccc4c(n3)NC(=O)C(C)(C)O4)n2)cc(OC)c1OC [R406] + Cc1nc(NC(=O)N2CCC[C@H]2C(N)=O)sc1-c1ccnc(C(C)(C)C(F)(F)F)c1 [Alpelisib] (partner 2 µM)
How it was run: (§1)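 Relative viability divides the nuclei count in treated wells by that in vehicle wells. Lung cancer cell lines were seeded in 1536-well plates, dosed by pin tool the next day, and fixed and stained after 5 days in one step with final 0.05% Triton X-100, 1% formaldehyde and 1 ug/ml Hoechst. Dosing was a single drug or a fixed anchor-drug dose plus five library-drug doses (not always all listed) in √10 steps, and values are medians of duplicate plates imaged at 4×.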

Daporinad + Phenformin = compound: O=C(/C=C/c1cccnc1)NCCCCC1CCN(C(=O)c2ccccc2)CC1 [Daporinad] + N=C(N)NC(=N)NCCc1ccccc1 [Phenformin] (partner 250 µM)
How it was run: as §1

Daporinad + Foretinib = compound: O=C(/C=C/c1cccnc1)NCCCCC1CCN(C(=O)c2ccccc2)CC1 [Daporinad] + COc1cc2c(Oc3ccc(NC(=O)C4(C(=O)Nc5ccc(F)cc5)CC4)cc3F)ccnc2cc1OCCCN1CCOCC1 [Foretinib] (partner 0.25 µM)
How it was run: as §1

R406 + Dasatinib = compound: COc1cc(Nc2ncc(F)c(Nc3ccc4c(n3)NC(=O)C(C)(C)O4)n2)cc(OC)c1OC [R406] + Cc1nc(Nc2ncc(C(=O)Nc3c(C)cccc3Cl)s2)cc(N2CCN(CCO)CC2)n1 [Dasatinib] (partner 0.075 µM)
How it was run: as §1

Cell Line | relative viability (R406 + Alpelisib; first compound 0.08 µM) | relative viability (R406 + Alpelisib; first compound 0.253 µM) | relative viability (R406 + Alpelisib; first compound 0.8 µM) | relative viability (R406 + Alpelisib; first compound 2.53 µM) | relative viability (R406 + Alpelisib; first compound 8 µM) | relative viability (Daporinad + Phenformin; first compound 0.0005 µM) | relative viability (Daporinad + Phenformin; first compound 0.001581 µM) | relative viability (Daporinad + Phenformin; first compound 0.005 µM) | relative viability (Daporinad + Phenformin; first compound 0.01581 µM) | relative viability (Daporinad + Foretinib; first compound 0.0005 µM) | relative viability (Daporinad + Foretinib; first compound 0.001581 µM) | relative viability (Daporinad + Foretinib; first compound 0.005 µM) | relative viability (Daporinad + Foretinib; first compound 0.01581 µM) | relative viability (R406 + Dasatinib; first compound 0.08 µM) | relative viability (R406 + Dasatinib; first compound 0.253 µM) | relative viability (R406 + Dasatinib; first compound 0.8 µM) | relative viability (R406 + Dasatinib; first compound 2.53 µM) | relative viability (R406 + Dasatinib; first compound 8 µM)
LXF-289 | 0.977 | 1.06 | 1.04 | 1 | 0.193 | 0.467 | 0.555 | 0.559 | 0.579 | 0.892 | 1.09 | 0.968 | 0.962 | 0.229 | 0.241 | 0.234 | 0.135 | 0.0357
NCI-H23 | 0.638 | 0.759 | 0.786 | 0.732 | 0.438 | 0.726 | 0.773 | 0.829 | 0.399 | 0.898 | 1.02 | 0.991 | 0.611 | 0.7 | 0.878 | 0.902 | – | 0.748
NCI-H322M | 0.811 | 0.807 | 0.774 | 0.375 | 0.457 | 0.793 | 0.726 | 0.686 | 0.436 | 0.964 | 1.13 | 0.886 | 0.478 | 0.237 | 0.245 | 0.26 | 0.24 | 0.208
NCI-H358 | 0.877 | 0.908 | 1 | 0.373 | 0.234 | 0.297 | 0.404 | 0.445 | 0.303 | 0.689 | 0.898 | 0.827 | 0.545 | 0.165 | 0.171 | 0.113 | 0.143 | 0.132
NCI-H522 | – | – | – | – | – | 0.654 | 0.758 | 0.695 | 0.682 | – | – | – | – | 0.78 | 0.883 | 0.869 | 0.725 | 0.722
NCI-H1299 | 1 | 1.02 | 1.11 | 1.12 | 1.09 | – | – | – | – | 1.12 | 1.08 | 1.14 | 1.04 | – | – | – | – | –
NCI-H1623 | – | – | – | – | – | 0.545 | 0.519 | 0.613 | 0.591 | 0.726 | 0.754 | 0.801 | 0.866 | 0.534 | 0.507 | 0.587 | 0.482 | 0.526
NCI-H1650 | – | – | – | – | – | 0.406 | 0.55 | 0.416 | 0.223 | 1.29 | 1.21 | 1.13 | 0.498 | 0.302 | 0.362 | 0.288 | 0.16 | 0.168
NCI-H1703 | 0.307 | 0.281 | 0.368 | 0.183 | 0.173 | – | – | – | – | 0.33 | 0.347 | 0.302 | 0.282 | – | – | – | – | –
NCI-H1792 | 0.626 | 0.665 | 0.752 | 0.541 | 0.563 | – | 0.582 | 0.222 | 0.68 | – | – | – | – | 0.781 | 0.906 | 0.871 | 0.551 | 0.401
NCI-H2342 | – | – | – | – | – | 0.62 | 0.61 | 0.595 | 0.546 | 1.09 | 0.974 | 1.01 | 0.969 | 0.309 | 0.321 | 0.341 | 0.303 | 0.277
SW 900 | – | – | – | – | – | 0.518 | 0.674 | 0.798 | 0.595 | 0.881 | 0.765 | 0.885 | 0.709 | 0.592 | 0.384 | 0.79 | 0.23 | 0.0973
